Key:
blackgrass [1] = assay: Test A preemergence; assay type: in vivo, Alopecurus myosuroides
Method in brief: (§1)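 Weeds and crops in loam–sand blend were sprayed preemergence onto soil or postemergence at 2–10 cm (one- to two-leaf stage). Test chemicals were in a non-phytotoxic solvent with surfactant. After 10 days in the greenhouse, injury was rated visually against untreated controls on a 0 (no effect) to 100 (complete control) scale.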

corn [2] = assay: Test A preemergence; assay type: in vivo, Zea mays
Method in brief: as §1

foxtail, giant [3] = assay: Test A preemergence; assay type: in vivo, Setaria faberi
Method in brief: as §1

goosegrass [4] = assay: Test A preemergence; assay type: in vivo, Eleusine indica
Method in brief: as §1

kochia [5] = assay: Test A preemergence; assay type: in vivo, Bassia scoparia
Method in brief: as §1

oat, wild [6] = assay: Test A preemergence; assay type: in vivo, Avena fatua
Method in brief: as §1

pigweed, palmer [7] = assay: Test A preemergence; assay type: in vivo, Amaranthus palmeri
Method in brief: as §1

ragweed [8] = assay: Test A preemergence; assay type: in vivo, Ambrosia artemisiifolia
Method in brief: as §1

ryegrass, Italian [9] = assay: Test A preemergence; assay type: in vivo, Lolium multiflorum
Method in brief: as §1

soybean [10] = assay: Test A preemergence; assay type: in vivo, Glycine max
Method in brief: as §1

wheat [11] = assay: Test A preemergence; assay type: in vivo, Triticum aestivum
Method in brief: as §1

blackgrass [12] = assay: Test A postemergence; assay type: in vivo, Alopecurus myosuroides
Method in brief: as §1

corn [13] = assay: Test A postemergence; assay type: in vivo, Zea mays
Method in brief: as §1

foxtail, giant [14] = assay: Test A postemergence; assay type: in vivo, Setaria faberi
Method in brief: as §1

goosegrass [15] = assay: Test A postemergence; assay type: in vivo, Eleusine indica
Method in brief: as §1

kochia [16] = assay: Test A postemergence; assay type: in vivo, Bassia scoparia
Method in brief: as §1

oat, wild [17] = assay: Test A postemergence; assay type: in vivo, Avena fatua
Method in brief: as §1

pigweed, palmer [18] = assay: Test A postemergence; assay type: in vivo, Amaranthus palmeri
Method in brief: as §1

ragweed [19] = assay: Test A postemergence; assay type: in vivo, Ambrosia artemisiifolia
Method in brief: as §1

ryegrass, Italian [20] = assay: Test A postemergence; assay type: in vivo, Lolium multiflorum
Method in brief: as §1

soybean [21] = assay: Test A postemergence; assay type: in vivo, Glycine max
Method in brief: as §1

wheat [22] = assay: Test A postemergence; assay type: in vivo, Triticum aestivum
Method in brief: as §1

galium = assay: Test A postemergence; assay type: in vivo, Galium aparine
Method in brief: as §1

horseweed = assay: Test A postemergence; assay type: in vivo, Erigeron canadensis
Method in brief: as §1

barnyardgrass = assay: Test B flooded paddy test; assay type: in vivo, Echinochloa crus-galli; settings: 250 g ai/ha, Flood, 13 days, 0 to 100 scale (0 no effect, 100 complete control)
Method in brief: (§2)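 2-leaf stage; pots flooded 3 cm over soil; compound dosed into paddy water; depth kept constant. Greenhouse, 13 d. Visual rating vs controls, 0 (no effect)–100 (complete control). Dash = no result.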

ducksalad = assay: Test B flooded paddy test; assay type: in vivo, Heteranthera limosa; settings: 250 g ai/ha, Flood, 13 days, 0 to 100 scale (0 no effect, 100 complete control)
Method in brief: as §2

rice = assay: Test B flooded paddy test; assay type: in vivo, Oryza sativa; settings: 250 g ai/ha, Flood, 13 days, 0 to 100 scale (0 no effect, 100 complete control)
Method in brief: as §2

sedge, umbrella = assay: Test B flooded paddy test; assay type: in vivo, Cyperus difformis; settings: 250 g ai/ha, Flood, 13 days, 0 to 100 scale (0 no effect, 100 complete control)
Method in brief: as §2

[23] = 125 g ai/ha, visual injury after 10 days, 0 to 100 scale, 0 is no effect, 100 is complete control
[24] = 500 g ai/ha, 0 to 100 scale (0 no effect, 100 complete control), 10 days
[25] = 125 g ai/ha, postemergence, 10 days, visual injury, 0 to 100 scale (0 no effect, 100 complete control)
[26] = 500 g ai/ha, Postemergence, 0 to 100 scale
[27] = 125 g ai/ha, postemergence, 10 days, 0 to 100 scale, 0 no effect, 100 complete control
[28] = 500 g ai/ha, postemergence, 10 days, visual injury, 0 to 100 scale (0 no effect, 100 complete control)

Cc1ccc(-n2cncn2)cc1C(=O)N1C[C@H](C)Oc2c(C)cccc21 [Compound 57]
90: Plant response rating, Blackgrass (blackgrass [1]; [24]) | Plant response rating, Goosegrass (goosegrass [4]; [23]) | Plant response rating, Oat, Wild (oat, wild [6]; [24]) | Plant response rating, Foxtail, Giant (foxtail, giant [14]; [25]) | Plant response rating, Foxtail, Giant (foxtail, giant [14]; [26]) | Plant response rating, Goosegrass (goosegrass [15]; [26]) | Plant response rating, Oat, Wild (oat, wild [17]; [26]) | Plant response rating, Wheat (wheat [22]; [26]) | Plant response rating, Sedge, Umbrella (sedge, umbrella)
10: Plant response rating, Kochia (kochia [16]; [25])
50: Plant response rating, Oat, Wild (oat, wild [6]; [23]) | Plant response rating, Ragweed (ragweed [8]; [24]) | Plant response rating, Blackgrass (blackgrass [12]; [25]) | Plant response rating, Pigweed, Palmer (pigweed, palmer [18]; [26]) | Plant response rating, Ragweed (ragweed [19]; [26])
65: Plant response rating, Ducksalad (ducksalad)
20: Plant response rating, Wheat (wheat [11]; [23]) | Plant response rating, Pigweed, Palmer (pigweed, palmer [18]; [25]) | Plant response rating, Horseweed (horseweed; [26])
60: Plant response rating, Blackgrass (blackgrass [1]; [23])
15: Plant response rating, Barnyardgrass (barnyardgrass)
100: Plant response rating, Foxtail, Giant (foxtail, giant [3]; [23]) | Plant response rating, Foxtail, Giant (foxtail, giant [3]; [24]) | Plant response rating, Goosegrass (goosegrass [4]; [24]) | Plant response rating, Pigweed, Palmer (pigweed, palmer [7]; [24]) | Plant response rating, Ryegrass, Italian (ryegrass, Italian [9]; [24]) | Plant response rating, Soybean (soybean [10]; [23]) | Plant response rating, Soybean (soybean [10]; [24]) | Plant response rating, Ryegrass, Italian (ryegrass, Italian [20]; [26]) | Plant response rating, Soybean (soybean [21]; [25]) | Plant response rating, Soybean (soybean [21]; [26]) | Plant response rating, Galium (galium; [26])
70: Plant response rating, Corn (corn [13]; [25]) | Plant response rating, Ryegrass, Italian (ryegrass, Italian [20]; [25]) | Plant response rating, Wheat (wheat [22]; [25])
80: Plant response rating, Ryegrass, Italian (ryegrass, Italian [9]; [23]) | Plant response rating, Wheat (wheat [11]; [24]) | Plant response rating, Blackgrass (blackgrass [12]; [26]) | Plant response rating, Corn (corn [13]; [26]) | Plant response rating, Oat, Wild (oat, wild [17]; [25]) | Plant response rating, Galium (galium; [25])
40: Plant response rating, Corn (corn [2]; [24]) | Plant response rating, Kochia (kochia [5]; [23]) | Plant response rating, Goosegrass (goosegrass [15]; [25])
30: Plant response rating, Kochia (kochia [5]; [24]) | Plant response rating, Pigweed, Palmer (pigweed, palmer [7]; [23]) | Plant response rating, Kochia (kochia [16]; [26]) | Plant response rating, Ragweed (ragweed [19]; [25])
0: Plant response rating, Corn (corn [2]; [23]) | Plant response rating, Ragweed (ragweed [8]; [23]) | Plant response rating, Horseweed (horseweed; [25]) | Plant response rating, Rice (rice)

CCc1ccc(-n2cnc(C3CCC3)n2)cc1C(=O)N1C[C@H](C)Oc2c(Cl)cccc21 [Compound 104]
70: Plant response rating, Oat, Wild (oat, wild [6]; [24])
40: Plant response rating, Blackgrass (blackgrass [1]; [24]) | Plant response rating, Ragweed (ragweed [8]; [24]) | Corn plant response rating (corn [13]; [27]) | Plant response rating, Oat, Wild (oat, wild [17]; [28])
25: Plant response rating, Ducksalad (ducksalad)
98: Plant response rating, Sedge, Umbrella (sedge, umbrella)
50: Plant response rating, Kochia (kochia [5]; [23]) | Plant response rating, Ryegrass, Italian (ryegrass, Italian [9]; [23]) | Plant response rating, Blackgrass (blackgrass [12]; [28]) | Goosegrass plant response rating (goosegrass [15]; [27])
60: Plant response rating, Soybean (soybean [10]; [23]) | Plant response rating, Ryegrass, Italian (ryegrass, Italian [20]; [28]) | Galium plant response rating (galium; [27]) | Plant response rating, Barnyardgrass (barnyardgrass)
100: Plant response rating, Foxtail, Giant (foxtail, giant [3]; [23]) | Plant response rating, Foxtail, Giant (foxtail, giant [3]; [24]) | Plant response rating, Goosegrass (goosegrass [4]; [23]) | Plant response rating, Goosegrass (goosegrass [4]; [24]) | Plant response rating, Kochia (kochia [5]; [24]) | Plant response rating, Pigweed, Palmer (pigweed, palmer [7]; [24]) | Plant response rating, Kochia (kochia [16]; [28]) | Plant response rating, Pigweed, Palmer (pigweed, palmer [18]; [28]) | Soybean plant response rating (soybean [21]; [27]) | Plant response rating, Soybean (soybean [21]; [28]) | Plant response rating, Galium (galium; [28])
80: Plant response rating, Corn (corn [13]; [28]) | Plant response rating, Goosegrass (goosegrass [15]; [28]) | Kochia plant response rating (kochia [16]; [27]) | Pigweed, Palmer plant response rating (pigweed, palmer [18]; [27])
20: Oat, Wild plant response rating (oat, wild [17]; [27]) | Plant response rating, Rice (rice)
0: Plant response rating, Corn (corn [2]; [23]) | Plant response rating, Corn (corn [2]; [24]) | Plant response rating, Oat, Wild (oat, wild [6]; [23]) | Plant response rating, Ragweed (ragweed [8]; [23]) | Plant response rating, Wheat (wheat [11]; [23]) | Plant response rating, Wheat (wheat [11]; [24]) | Blackgrass plant response rating (blackgrass [12]; [27]) | Ragweed plant response rating (ragweed [19]; [27]) | Horseweed plant response rating (horseweed; [27]) | Plant response rating, Horseweed (horseweed; [28])
10: Wheat plant response rating (wheat [22]; [27]) | Plant response rating, Wheat (wheat [22]; [28])
90: Plant response rating, Pigweed, Palmer (pigweed, palmer [7]; [23]) | Plant response rating, Ryegrass, Italian (ryegrass, Italian [9]; [24]) | Plant response rating, Soybean (soybean [10]; [24]) | Foxtail, Giant plant response rating (foxtail, giant [14]; [27]) | Plant response rating, Foxtail, Giant (foxtail, giant [14]; [28])
30: Plant response rating, Blackgrass (blackgrass [1]; [23]) | Plant response rating, Ragweed (ragweed [19]; [28]) | Ryegrass, Italian plant response rating (ryegrass, Italian [20]; [27])
